Measured values reported in paper PMC5943542, “Targeting LMW‐PTP to sensitize melanoma cancer cells toward chemo‐ and radiotherapy” (Cancer Medicine, 2018).

Target: T1, LMW-PTP (recombinant isoforms IF-A and IF-B) (Homo sapiens, UniProt P24666)
T1 construct: gene ACP1; purified recombinant human LMW-PTP, isoform A (IF-A) and isoform B (IF-B)
T1 sequence (P24666 2-158): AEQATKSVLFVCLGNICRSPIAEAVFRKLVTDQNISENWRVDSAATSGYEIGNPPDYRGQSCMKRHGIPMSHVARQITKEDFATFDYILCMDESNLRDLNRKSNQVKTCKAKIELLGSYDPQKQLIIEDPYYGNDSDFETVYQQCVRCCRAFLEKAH
Test: p-nitrophenylphosphate hydrolysis kinetics with purified recombinant enzyme, double reciprocal plots
Format: biochemical

Question: How did the Ki turn out when `O=c1c(O)c(-c2ccc(O)cc2O)oc2cc(O)cc(O)c12` [Morin] was run?
Answer: micromolar range
